This note sets out measurements from patent US20050272748A1, “2-Mercapto-substituted triazolopyrimidines, methods for the production thereof, the use of the same for controlling patogenic fungi, and agents containing said compounds” (BASF Aktiengesellschaft, priority 2002, published 2005).

The structures appear in SMILES notation.

The assay has as its system Botrytis cinerea. The experiment in a line: Activity against gray mold on bell pepper leaves, protective application. The class given is in vivo. Conditions: 250 ppm active compound; bell pepper seedlings sprayed to runoff, inoculated next day, evaluated after 5 days; untreated plants 45% infected. As for the experimental part:
The active compounds were prepared as a 10% strength emulsion in a mixture of 70% by weight of cyclohexanone, 20% by weight of Nekanil®) LN (Lutensol®) AP6, wetting agent having emulsifying and dispersing action based on ethoxylated alkylphenols) and 10% by weight of Wettol® EM (nonionic emulsifier based on ethoxylated castor oil) and diluted with water to the desired concentration. Use example: Activity against gray mold, caused by Botiytis cinerea, on bell pepper leaves, protective application Bell pepper seedlings of the cultivar “Neusiedler Ideal Elite” were, after 4 to 5 leaves were well-developed, sprayed to runoff-point with an aqueous suspension having the concentration of active compound stated below. The next day, the treated plants were inoculated with a spore suspension of Botrytis cinerea, which contained 1.7×10^6 spores/ml in an aqueous 2% strength biomalt solution. […] After 5 days, the extent of the fungal infection on the leaves could be determined visually in %. […] The efficacy (E) is calculated as follows, using Abbot's formula: E=(1−α/β)·100 • α corresponds to the fungal infection of the treated plants in % and • β corresponds to the fungal infection of the untreated (control) plants in % At an efficacy of 0, the degree of infection of the treated plants corresponds to that of the untreated control plants; at an efficacy of 100, the treated plants were not infected.

For the molecule `CC1CCN(c2c(-c3c(F)cc(F)cc3F)c(Cl)nc3nc(S)nn23)CC1` [Example 9, 5-chloro-7-(4-methylpiperidin-1-yl)-2-mercapto-6-(2,4,6-trifluorophenyl)-[1,2,4]-triazolo[1,5-a]pyrimidine], the “efficacy (Abbot's formula)” value is 56%.
